Common to all, as to type: functional, cell-based
Assay [1] deals with T1, Multidrug resistance-associated protein 1 (Homo sapiens, UniProt P33527). Nature of the assay: TP_TRANSPORTER: inhibition of DNR transport in HL60/ADR cells (overexpression of MRP1).
Assay [2] deals with T1, Multidrug resistance-associated protein 1. Nature of the assay: TP_TRANSPORTER: inhibition of VP-16 transport in HL60/ADR cells (overexpression of MRP1).
Assay [3] has the same target. Description: TP_TRANSPORTER: inhibition of VCR transport in HL60/ADR cells (overexpression of MRP1).
For assay [4] the target is unchanged. Nature of the assay: TP_TRANSPORTER: inhibition of VCR transport in HL60/MRP cells.
The target is the same in assay [5]. Nature of the assay: TP_TRANSPORTER: inhibition of VP-16 transport in HL60/MRP cells.
The target is the same in assay [6]. Nature of the assay: TP_TRANSPORTER: inhibition of DNR transport in HL60/MRP cells.

T1 sequence (P33527 whole entry): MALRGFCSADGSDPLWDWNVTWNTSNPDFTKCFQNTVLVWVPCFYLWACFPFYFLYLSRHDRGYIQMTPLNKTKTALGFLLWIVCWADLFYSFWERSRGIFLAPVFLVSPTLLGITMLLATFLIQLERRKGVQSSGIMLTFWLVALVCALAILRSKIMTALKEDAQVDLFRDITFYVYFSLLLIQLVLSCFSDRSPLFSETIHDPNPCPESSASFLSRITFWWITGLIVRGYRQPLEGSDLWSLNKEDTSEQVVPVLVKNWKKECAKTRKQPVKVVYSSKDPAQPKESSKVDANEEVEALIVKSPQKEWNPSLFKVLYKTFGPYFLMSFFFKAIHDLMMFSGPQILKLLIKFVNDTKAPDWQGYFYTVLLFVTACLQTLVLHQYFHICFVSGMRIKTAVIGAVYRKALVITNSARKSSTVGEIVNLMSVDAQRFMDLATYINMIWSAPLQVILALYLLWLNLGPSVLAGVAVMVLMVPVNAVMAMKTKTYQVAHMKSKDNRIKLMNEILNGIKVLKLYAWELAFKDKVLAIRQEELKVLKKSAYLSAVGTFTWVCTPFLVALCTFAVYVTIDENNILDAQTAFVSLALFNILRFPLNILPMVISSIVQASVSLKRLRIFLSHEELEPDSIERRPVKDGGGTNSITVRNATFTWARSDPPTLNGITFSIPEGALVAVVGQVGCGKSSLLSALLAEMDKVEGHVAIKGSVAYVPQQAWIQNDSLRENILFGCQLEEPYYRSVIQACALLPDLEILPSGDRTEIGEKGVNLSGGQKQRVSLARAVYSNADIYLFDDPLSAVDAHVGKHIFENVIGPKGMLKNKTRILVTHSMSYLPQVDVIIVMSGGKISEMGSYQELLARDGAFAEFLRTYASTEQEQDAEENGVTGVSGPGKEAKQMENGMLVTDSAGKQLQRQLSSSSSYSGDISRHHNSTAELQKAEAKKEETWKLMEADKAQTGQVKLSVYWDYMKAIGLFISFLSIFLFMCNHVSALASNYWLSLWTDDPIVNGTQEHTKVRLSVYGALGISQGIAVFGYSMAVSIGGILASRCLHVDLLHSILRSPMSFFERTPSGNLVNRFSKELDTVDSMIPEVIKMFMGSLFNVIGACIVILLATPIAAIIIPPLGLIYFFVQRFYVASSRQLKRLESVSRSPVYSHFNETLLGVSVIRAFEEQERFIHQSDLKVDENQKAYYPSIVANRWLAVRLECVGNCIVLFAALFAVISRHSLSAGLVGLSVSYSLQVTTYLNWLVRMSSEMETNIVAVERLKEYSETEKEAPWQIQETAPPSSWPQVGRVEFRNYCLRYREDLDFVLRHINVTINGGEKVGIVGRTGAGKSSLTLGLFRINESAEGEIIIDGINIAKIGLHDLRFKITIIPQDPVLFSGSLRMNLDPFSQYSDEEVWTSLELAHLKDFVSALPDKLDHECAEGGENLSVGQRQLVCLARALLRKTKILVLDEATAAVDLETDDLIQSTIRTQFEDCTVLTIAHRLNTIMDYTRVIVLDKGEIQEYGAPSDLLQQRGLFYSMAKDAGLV

For `COc1cc2c(c(OC)c1OC)-c1c(cc3c(c1OC)OCO3)C[C@H](C)[C@@](C)(O)C2` [GOMISIN A], the IC50 in assay [1] was 0.122 µM; in assay [2], 7.77 µM; in assay [3], 0.00096 µM; in assay [4], 0.00936 µM; in assay [5] it was 2.76 µM; in assay [6], 0.182 µM.

Take `COc1cc2c(c(OC)c1OC)-c1c(cc(OC)c(OC)c1OC)C[C@H](C)[C@H](C)C2` [SCHISANDRIN A]: the concentration for half-maximal inhibition (IC50) is 0.142 µM in assay [1]; 4.89 µM in assay [2]; 0.00984 µM in assay [3]; 0.00696 µM in assay [4]; 2.34 µM in assay [5]; 0.154 µM in assay [6].

For the compound `COc1cc2c(c(OC)c1OC)-c1c(cc3c(c1OC)OCO3)CC(C)C(C)C2` (centres undefined) [SCHISANDRIN B], the IC50 in assay [1] was 0.14 µM; in assay [2], 4.19 µM; in assay [3], 0.00125 µM; in assay [4], 0.00949 µM; in assay [5], 2.25 µM; in assay [6] it was 0.205 µM.

Consider `COc1cc2c(c(OC)c1OC)-c1c(cc(OC)c(OC)c1OC)C[C@](C)(O)[C@@H](C)C2` [SCHIZANDRIN], for which the concentration for half-maximal inhibition (IC50) in assay [1] was 0.125 µM; in assay [2] it was 7.25 µM; in assay [3] it was 0.00116 µM; in assay [4] it was 0.00809 µM; in assay [5] it was 3.24 µM; in assay [6] it was 0.217 µM.

The values above are taken from ChEMBL document CHEMBL2073771, “Dibenzocyclooctadiene lignans: a class of novel inhibitors of multidrug resistance-associated protein 1” (Life Sci, 2006).
